Reference: patent US7576128B2 (priority 2004, dated 2009)

Experiments:
male Syrian hamsters = test: Animal model for inhibition of sebum production (hamster ear, HPLC of sebum components); assay type: in vivo; conditions: for % Reduction in CE: cholesterol ester; for % Reduction in CE / % Reduction in WE: 3 w/v% topical twice daily, five days a week, 4 weeks, difference from vehicle control; for Sum CE + WE: summation of CE and WE reductions; for % Reduction in WE: wax ester
Protocol: Luderschmidt et al describes an animal model for testing whether compounds are capable of modulating sebum secretion. Arch. Derm. Res. 258, 185-191 (1977). This model uses male Syrian hamsters, whose ears contain sebaceous glands. Selected compounds produced above were screened in this model.
Testing for sebum inhibition was carried out in the following manner. Male Syrian hamsters aged 9 to 10 weeks were introduced into the laboratory environment and acclimated for 2 weeks prior to use in the study. Each group consisted of 5 animals and were run in parallel with vehicle and positive controls. Prior to administration, 30mg of each compound was dissolved in 1 mL of Universal solvent (ethanol/propylene glycol (70/30%v/v) to achieve a final concentration of 3 w/v%.
Animals were dosed topically twice daily, five days a week, for 4 weeks. Each dose consisted of 25 micro liters of vehicle control or drug. The dose was applied to the ventral surfaces of both the right and left ears. All animals were sacrificed approximately 18-24 hours after the final dose. The right ears were collected from each animal and used for sebum analysis.
The ears were prepped for HPLC analysis in the following manner. One 8mm distal biopsy punch was taken, just above the anatomical “V” mark in the ear to normalize the sample area. The punch was pulled apart. The ventral biopsy surface (the area where the topical dose was directly applied to the sebaceous glands) was retained for testing and the dorsal surface of the biopsy punch was discarded.
HPLC analysis was carried out on an extract of the tissue sample. Tissue samples were contacted with 3ml of solvent (a 4:1 admixture of 2,2,4-trimethylpentane and isopropyl alcohol). The mixture was shaken for 15 minutes and stored overnight at room temperature, protected from light. The next morning 1 milliliter of water was added to the sample and shaken for 15 minutes. The sample was then centrifuged at approximately 1500 rpm for 15 minutes. Two ml of the organic phase (top layer) was transferred to a glass vial, dried at 37° C., under nitrogen, for approximately 1 hour, and then lyophilized for approximately 48 hours. The samples were then removed from the lyophilizer and each vial was reconstituted with 600 μl of solvent A (trimethylpentane/tetrahydrofuran (99:1). The samples were then recapped and vortexed for 5 minutes.
The results are reported as the reduction in cholesterol ester (CE) and wax ester (WE) production, when compared to the vehicle control.
Columns 1 and 2 identify the compound by structure and Example number. Columns 3 through 5 show the effect the compounds had on the -reduction of sebum components (CE and WE). The results are expressed as the difference from the vehicle control. A positive number reflects a decrease in the production of the sebum component being measured, i.e. cholesterol ester (CE) or wax ester (WE).

Male C3H/HeN mice = test: Modified telogen conversion assay (hair growth, induction of anagen); assay type: in vivo; conditions: topical twice daily for 4 weeks
From the text: It has been discovered that male C3H/HeN mice may be used in the telogen conversion assay, when evaluating anti-androgen test compounds. Thus, the model relates to a modification of the existing telogen conversion assay. Male C3H/HeN mice approximately 7 weeks old are utilized. These animals are also uniformly in telogen, like their female counterparts. However, once shaven, the androgens inherently present in these male mice inhibit the conversion of the hair follicles to the anagen phase. An anti-androgen will block this androgenic effect and the follicles will convert to anagen, like their female counterparts.
Male C3H/HeN mice, 6 to 7 weeks old (Charles River Laboratories, Raleigh, N.C.) were used for the study. Fur was clipped from the dorsal region of the mice prior to initiation of the study. Only mice with pink skin, a visual indication of the telogen phase, were selected for inclusion in the study.
The test compound was dissolved in a vehicle consisting of propylene glycol (30%) and ethanol (70%) to achieve a concentration of either 0.2% w/v, 0.5% w/v, 1% w/v or 3% w/v. The relevant dose was applied topically to the clipped dorsal region of the mice in one test group (7-10 mice) in a volume of 20 μl/cm^2. A third group of animals received only the vehicle to serve as a control. Treatments were applied twice daily for 4 weeks.
The treatment area was observed and graded every other day for signs of hair growth. The hair growth response was quantified by recording, for each animal, the day on which signs of hair growth first appeared over the treated area. The first sign of anagen was the darkening of skin color as melanocytes in the follicles started to synthesize melanin in preparation for the production of pigmented hairs. […] The percentage of mice showing signs of hair growth in both the treatment group and the control group is graphically depicted in FIG. 1.

Compound | % Reduction in CE (male Syrian hamsters) [%] | Sum CE + WE (male Syrian hamsters) [%] | % Reduction in WE (male Syrian hamsters) [%] | rate of hair growth versus vehicle control group (Male C3H/HeN mice; 5% test group) | hair growth (induction of anagen) (Male C3H/HeN mice; concentration of 1%)
CCCCC(COc1ccc(C#N)c(C(F)(F)F)c1)C(C)O (centres unmarked) [Example 15, 4-[2-(1-Hydroxy-ethyl)-hexyloxy]-2-tri-fluoromethyl-benzonitrile] | 54 | 128 | 74 | – | –
C[C@H](O)CC[C@H](C)Oc1ccc(C#N)c(C(F)(F)F)c1 [Example 23, (1S,4S)-4-(4-Hy-droxy-1-methylpentyl-oxy)-2-tri-fluoromethyl-benzonitrile] | 67 | 154 | 87 | did not exceed that of the vehicle control group | produced substantial hair growth
